Measured values as given in the supplement of paper PMC11061612.

Tests used:
Experiment in all cases: combination Emax (second highest fraction inhibited in the dose matrix, 72 h); higher = more inhibition; extreme values may be limits of the assay
[1] = system: BFTC-905 (Bladder Carcinoma)
Procedure, shortened: (§1)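 Cell lines grown in DMEM/F12 or RPMI with 10% FBS were plated in 1536-well plates and held 24 hours at 37°C, 5% CO2 before 72 hours of exposure to two-drug dose matrices, with DMSO typically at 0.2%. CellTiter-Glo 2.0 luminescence gave viability, which was converted to inhibition. Vehicle wells were set to 0 and blank wells to 1. Combination Emax is the second-highest inhibition in the matrix, and Bliss excess is the observed combination effect minus the expected EA + EB − EA·EB, where EA and EB are the single-agent effects.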

[2] = system: COLO-678 (Colorectal Carcinoma)
Procedure, shortened: as §1

[3] = system: DND-41 (T-Lymphoblastic Leukemia)
Procedure, shortened: as §1

ES1 (Ewing's Sarcoma) = system: ES1 (Ewing's Sarcoma)
Procedure, shortened: as §1

[4] = system: EVSA-T (Breast Carcinoma)
Procedure, shortened: as §1

[5] = system: KCL-22 (Chronic Myelogenous Leukemia)
Procedure, shortened: as §1

[6] = system: KYSE-180 (Esophageal Squamous Cell Carcinoma)
Procedure, shortened: as §1

[7] = system: L-540 (Hodgkin's Lymphoma)
Procedure, shortened: as §1

LN-18 (Glioblastoma) = system: LN-18 (Glioblastoma)
Procedure, shortened: as §1

MEL-JUSO (Melanoma) = system: MEL-JUSO (Melanoma)
Procedure, shortened: as §1

[8] = system: MFM-223 (Breast Carcinoma)
Procedure, shortened: as §1

[9] = system: MOLT-16 (T-Lymphoblastic Leukemia)
Procedure, shortened: as §1

NCI-H2818 (Mesothelioma) = system: NCI-H2818 (Mesothelioma)
Procedure, shortened: as §1

[10] = system: P12-ICHIKAWA (T-Lymphoblastic Leukemia)
Procedure, shortened: as §1

[11] = system: PANC-08-13 (Pancreatic Carcinoma)
Procedure, shortened: as §1

[12] = system: SW1417 (Colorectal Carcinoma)
Procedure, shortened: as §1

TC-71 (Ewing's Sarcoma) = system: TC-71 (Ewing's Sarcoma)
Procedure, shortened: as §1

[13] = system: TOV-112D (Ovarian Carcinoma)
Procedure, shortened: as §1

U251 (Low Grade Glioma) = system: U251 (Low Grade Glioma)
Procedure, shortened: as §1

WIL2-NS (Non-Cancerous) = system: WIL2-NS (Non-Cancerous)
Procedure, shortened: as §1

CC1(C)CCC(CN2CCN(c3ccc(C(=O)NS(=O)(=O)c4ccc(NCC5CCOCC5)c([N+](=O)[O-])c4)c(Oc4cnc5[nH]ccc5c4)c3)CC2)=C(c2ccc(Cl)cc2)C1 [Venetoclax] + Cn1cnc2c(F)c(Nc3ccc(Br)cc3Cl)c(C(=O)NOCCO)cc21 [Selumetinib] (first compound max 1 µM, 7x7, partner max 3 µM)
combination Emax [1]: 0.454 | combination Emax [2]: 0.485 | combination Emax [3]: 0.891 | combination Emax (ES1 (Ewing's Sarcoma)): 0.338 | combination Emax [4]: 0.182 | combination Emax [5]: 0.318 | combination Emax [6]: 0.0548 | combination Emax [7]: 0.493 | combination Emax (LN-18 (Glioblastoma)): 0.17 | combination Emax (MEL-JUSO (Melanoma)): 0.305 | combination Emax [8]: 0.24 | combination Emax [9]: 0.691 | combination Emax (NCI-H2818 (Mesothelioma)): 0.133 | combination Emax [10]: 0.23 | combination Emax [11]: 0.184 | combination Emax [12]: 0.489 | combination Emax (TC-71 (Ewing's Sarcoma)): 0.291 | combination Emax [13]: 0.156 | combination Emax (U251 (Low Grade Glioma)): 0.137 | combination Emax (WIL2-NS (Non-Cancerous)): 0.87

NC1(C(=O)N[C@@H](CCO)c2ccc(Cl)cc2)CCN(c2ncnc3[nH]ccc23)CC1 [Capivasertib] + COc1nnc2ccc(N3CCC(c4ccc(OCCN5CCN(C)C(=O)[C@H]5C)cc4)CC3)nn12 [AZD5153] (first compound max 10 µM, 7x7, partner max 1 µM)
combination Emax [1]: 0.681 | combination Emax [2]: 0.396 | combination Emax [3]: 0.679 | combination Emax (ES1 (Ewing's Sarcoma)): 0.694 | combination Emax [4]: 1 | combination Emax [5]: 0.792 | combination Emax [6]: 0.616 | combination Emax [7]: 0.605 | combination Emax (LN-18 (Glioblastoma)): 0.779 | combination Emax (MEL-JUSO (Melanoma)): 0.36 | combination Emax [8]: 0.852 | combination Emax [9]: 1 | combination Emax (NCI-H2818 (Mesothelioma)): 0.238 | combination Emax [10]: 0.994 | combination Emax [11]: 0.668 | combination Emax [12]: 0.482 | combination Emax (TC-71 (Ewing's Sarcoma)): 0.797 | combination Emax [13]: 0.665 | combination Emax (U251 (Low Grade Glioma)): 0.578 | combination Emax (WIL2-NS (Non-Cancerous)): 0.848

CC1(C)CCC(CN2CCN(c3ccc(C(=O)NS(=O)(=O)c4ccc(NCC5CCOCC5)c([N+](=O)[O-])c4)c(Oc4cnc5[nH]ccc5c4)c3)CC2)=C(c2ccc(Cl)cc2)C1 [Venetoclax] + CN(C)CCCOc1ccc(-c2ccc3ncc4c(c3c2)n(C2CCOCC2)c(=O)n4C)cn1 [AZD0156] (first compound max 1 µM, 7x7, partner max 1 µM)
combination Emax [1]: 0.588 | combination Emax [2]: 0.187 | combination Emax [3]: 0.893 | combination Emax (ES1 (Ewing's Sarcoma)): 0.82 | combination Emax [4]: 0.213 | combination Emax [5]: 0.212 | combination Emax [6]: 0.155 | combination Emax [7]: 0.886 | combination Emax (LN-18 (Glioblastoma)): 0.329 | combination Emax (MEL-JUSO (Melanoma)): 0.233 | combination Emax [8]: 0.155 | combination Emax [9]: 0.699 | combination Emax (NCI-H2818 (Mesothelioma)): 0.284 | combination Emax [10]: 0.224 | combination Emax [11]: 0.189 | combination Emax [12]: 0.266 | combination Emax (TC-71 (Ewing's Sarcoma)): 0.294 | combination Emax [13]: 0.131 | combination Emax (U251 (Low Grade Glioma)): 0.227 | combination Emax (WIL2-NS (Non-Cancerous)): 0.804

Cn1cnc2c(F)c(Nc3ccc(Br)cc3Cl)c(C(=O)NOCCO)cc21 [Selumetinib] + C=CCn1c(=O)c2cnc(Nc3ccc(N4CCN(C)CC4)cc3)nc2n1-c1cccc(C(C)(C)O)n1 [AZD1775] (first compound max 10 µM, partner max 1 µM)
combination Emax [1]: 0.665 | combination Emax [2]: 0.52 | combination Emax [3]: 0.898 | combination Emax (ES1 (Ewing's Sarcoma)): 0.602 | combination Emax [4]: 0.156 | combination Emax [5]: 0.943 | combination Emax [6]: 0.544 | combination Emax [7]: 0.905 | combination Emax (LN-18 (Glioblastoma)): 0.461 | combination Emax (MEL-JUSO (Melanoma)): 0.604 | combination Emax [8]: 0.446 | combination Emax [9]: 1 | combination Emax (NCI-H2818 (Mesothelioma)): 0.303 | combination Emax [10]: 1 | combination Emax [11]: 0.305 | combination Emax [12]: 0.704 | combination Emax (TC-71 (Ewing's Sarcoma)): 0.355 | combination Emax [13]: 0.48 | combination Emax (U251 (Low Grade Glioma)): 0.326 | combination Emax (WIL2-NS (Non-Cancerous)): 0.937

Cn1cnc2c(F)c(Nc3ccc(Br)cc3Cl)c(C(=O)NOCCO)cc21 [Selumetinib] + C[C@@H]1COCCN1C2=NC(=NC(=C2)C3(CC3)[S@](=N)(=O)C)C4=C5C=CNC5=NC=C4 [AZD6738] (first compound max 10 µM, 7x7, partner max 10 µM)
combination Emax [1]: 0.784 | combination Emax [2]: 0.466 | combination Emax [3]: 0.897 | combination Emax (ES1 (Ewing's Sarcoma)): 0.898 | combination Emax [4]: 0.222 | combination Emax [5]: 0.984 | combination Emax [6]: 0.393 | combination Emax [7]: 0.889 | combination Emax (LN-18 (Glioblastoma)): 0.71 | combination Emax (MEL-JUSO (Melanoma)): 0.509 | combination Emax [8]: 0.673 | combination Emax [9]: 1 | combination Emax (NCI-H2818 (Mesothelioma)): 0.252 | combination Emax [10]: 0.988 | combination Emax [11]: 0.239 | combination Emax [12]: 0.583 | combination Emax (TC-71 (Ewing's Sarcoma)): 0.945 | combination Emax [13]: 0.657 | combination Emax (U251 (Low Grade Glioma)): 0.443 | combination Emax (WIL2-NS (Non-Cancerous)): 0.922

CS(=O)(=O)CCNCc1ccc(-c2ccc3ncnc(Nc4ccc(OCc5cccc(F)c5)c(Cl)c4)c3c2)o1 [Lapatinib] + C[C@@H](Oc1cc(-c2cnn(C3CCNCC3)c2)cnc1N)c1c(Cl)ccc(F)c1Cl [Crizotinib] (first compound max 10 µM, 7x7, partner max 10 µM)
combination Emax [1]: 0.963 | combination Emax [2]: 0.62 | combination Emax [3]: 0.946 | combination Emax (ES1 (Ewing's Sarcoma)): 0.965 | combination Emax [4]: 0.985 | combination Emax [5]: 0.979 | combination Emax [6]: 0.952 | combination Emax [7]: 0.911 | combination Emax (LN-18 (Glioblastoma)): 0.965 | combination Emax (MEL-JUSO (Melanoma)): 0.912 | combination Emax [8]: 0.662 | combination Emax [9]: 0.992 | combination Emax (NCI-H2818 (Mesothelioma)): 0.59 | combination Emax [10]: 0.975 | combination Emax [11]: 0.802 | combination Emax [12]: 0.669 | combination Emax (TC-71 (Ewing's Sarcoma)): 0.758 | combination Emax [13]: 0.791 | combination Emax (U251 (Low Grade Glioma)): 0.785 | combination Emax (WIL2-NS (Non-Cancerous)): 0.607

Cc1c2c(nn1C)CSCc1cc(n(C)n1)CSc1cc(c3ccccc3c1)OCCCc1c(C(=O)O)n(C)c3c-2c(Cl)ccc13 [AZD5991] + C1CN(CCC1(C(=O)N[C@@H](CCO)C2=CC=C(C=C2)Cl)N)C3=NC=NC4=C3C=CN4 [Capivasertib] (first compound max 1 µM, 7x7, partner max 3 µM)
combination Emax [1]: 0.206 | combination Emax [2]: 0.194 | combination Emax [3]: 0.111 | combination Emax (ES1 (Ewing's Sarcoma)): 0.955 | combination Emax [4]: 1 | combination Emax [5]: 0.981 | combination Emax [6]: 0.922 | combination Emax [7]: 1 | combination Emax (LN-18 (Glioblastoma)): 0.409 | combination Emax (MEL-JUSO (Melanoma)): 0.346 | combination Emax [8]: 0.788 | combination Emax [9]: 1 | combination Emax (NCI-H2818 (Mesothelioma)): 0.258 | combination Emax [10]: 1 | combination Emax [11]: 0.15 | combination Emax [12]: 0.208 | combination Emax (TC-71 (Ewing's Sarcoma)): 0.47 | combination Emax [13]: 0.407 | combination Emax (U251 (Low Grade Glioma)): 0.224 | combination Emax (WIL2-NS (Non-Cancerous)): 0.666
